From ChEMBL document CHEMBL1123897, “Nucleosides. 146. 1-Methyl-5-(2-deoxy-2-fluoro-beta-D-arabinofuranosyl)uracil, the C-nucleoside isostere of the potent antiviral agent 1-(2-deoxy-2-fluoro-beta-D-arabinofuranosyl)thymine (FMAU). Studies directed toward the synthesis of 2'-deoxy-2'-substituted arabino nucleosides. 6” (1987)

Key:
Format in all cases: functional
Conditions in all cases: read-out: ED50 (the source's name)
[1] = organism: Homo sapiens; assay: In vitro inhibitory activity against Herpes simplex virus-1(HSV-1) was determined in human foreskin fibroblasts
[2] = organism: Homo sapiens; assay: In vitro inhibitory activity against Varicella zoster virus(VZV) was determined in human foreskin fibroblasts
[3] = organism: Homo sapiens; assay: In vitro inhibitory activity against Herpes simplex […] was determined in human foreskin fibroblasts

SMILES | EC50 [1] [µM] | EC50 [2] [µM] | EC50 [3] [µM]
Cn1cc([C@@H]2O[C@H](CO)[C@@H](O)[C@@H]2F)c(=O)[nH]c1=O | 8.5 | 6.4 | 23
Cc1cn([C@@H]2O[C@H](CO)[C@@H](O)[C@@H]2F)c(=O)[nH]c1=O [5-METHYL-2'-FLUOROARAURACIL] | 0.06 | 0.02 | 0.13
